Reference: US9820988B2, “Treatment of epileptic disorders in feline animals” (Boehringer Ingelheim Vetmedica GmbH, priority 2014, dated 2017)
Where two headings read alike, the source gives them in different places.

What was measured:
[1] = system: feline amygdala or hippocampal kindled seizures; settings: partial onset and secondarily generalized limbic seizures; cited from earlier work
[2] = system: treated cats; settings: cited from earlier work
[3] = system: clinically healthy male and female cats; assay: Safety 2: repeated oral administration of 40 and 80 mg/kg twice daily for 30 days, placebo controlled; type: in vivo, cat
Procedure: FIG. 3 Measurement of Alkaline Phosphatase (AP) in serum following administration of imepitoin in doses of 40 or 80 mg/kg bodyweight twice daily, or placebo. AP is routinely used to judge liver function and diagnose liver pathologies, and an elevated AP is indicative for a variety of diseases. […] Day 0 reflects measurement before treatment start.
Eighteen 9 months old, male and female domestic short hair cats with a body weight range of 2.3-4.9 kg are assigned to this study. The animals are allocated to three test groups employing a pseudo-random body weight stratification procedure that yielded groups with approximately equal mean body weight, with three male and three female animals per group. The test article (imepitoin) is orally administered to the animals at a target dose of 40 mg imepitoin/kg bodyweight and 80 mg imepitoin/kg bodyweight twice daily at an interval of 8-12 h on days 0-30. The third group receives visually identical placebo tablets, to avoid identification of the Placebo Group.
Physical examination a day before treatment start and on study days 7, 14 and 30 includes body temperature (rectal), ocular system, musculoskeletal system, cardiovascular system, reproductive system, lymphatic system, behavior, nervous system, integumentary system, respiratory system, urinary system and gastro-intestinal system. In addition, blood and urine samples are analyzed before treatment and after 30 days.

[4] = system: clinically healthy male and female cats; assay: Safety 1: tolerance in clinically healthy cats after repeated oral administration for 30 days; type: in vivo, cat
Excerpt: In a randomized, controlled, blinded study the tolerance of imepitoin is investigated in clinically healthy male and female cats after repeated oral administration for 30 days.
Twelve 1-3 years old, male and female domestic short hair cats with a body weight range of 2.8-4.4 kg are assigned to this study. The animals are randomly allocated to two groups, three male and three female animals per group. The test article (imepitoin) is orally administered to the animals of group II at a target dose of 30 mg imepitoin/kg bodyweight twice daily at an interval of 8-12 h on days 0-29. Group I is left untreated serving as controls.

[5] = system: feline patients with epilepsy; assay: Efficacy 2: seizure frequency and severity in feline patients versus untreated status at diagnosis; type: in vivo, cat
Excerpt: In some animals, treatment with current standard of care, phenobarbital, is not effective and results in frequent severe seizures despite high-dose treatment.

[6] = system: cats with epileptic disorders; assay: Efficacy 3: imepitoin versus phenobarbital in two groups of cats with epileptic disorders
[7] = Pharmacokinetics of imepitoin in cats after oral administration (Example 1); type: in vivo, cat; settings: for Tmax / Cmax / AUC(0-t): po; for Tmax: 30 mg/kg; for Cmax / AUC(0-t): Day 0, first dose of 30 mg/kg; for AUC(0-t): read-out: AUC0-6h
Procedure: FIG. 1 Mean plasma concentration-time curves of imepitoin after the first oral dose of 30 mg/kg imepitoin in male (M) and female cats (F) at Day 0, Day 14 and Day 29 (semi-logarithmic scale).
When administered orally at a preferred dose of e.g. 30 mg/kg bodyweight twice daily (60 mg/kg bodyweight daily dose) imepitoin the highest plasma concentration […] is reached in median 1 hour (range 0.5 to 3 hours) after administration, in most cases 1 hour.
Corresponding AUC0-6h-values are 28001 ng·h/mL and 24467 ng·h/mL, respectively.

[8] = system: cats with epilepsy; assay: Efficacy 1: two cats diagnosed with epilepsy, severe generalized seizures; type: in vivo, cat
Procedure: Two cats are diagnosed with epilepsy, having severe generalized seizures.
The first cat, a 14 year old European Short-Hair cat, had two severe generalized seizures. Both lasted around two minutes, the cat lost consciousness and was disoriented after the seizure. In addition, a fibrosarcoma and hyperthyroidism was diagnosed. The cat was treated twice a day with 100 mg imepitoin, being a dose of 25 mg/kg bodyweight. […] This resolved spontaneously after 10 days of treatment.
The second cat, 7 years old, experienced two generalized seizures on two consecutive days, and the diagnosis was epilepsy of unknown cause. The cat appeared to be sleepier in the time before occurrence of first seizure.

[9] = system: cats with drug resistant epilepsy; assay: Efficacy 4: cats with drug-resistant (phenobarbital) epileptic disorders switched to imepitoin; type: in vivo, cat
Procedure: Cats with epileptic disorders are treated with increasing doses of phenobarbital, starting from 3 mg/kg bodyweight twice daily up to the maximum tolerated dose. […] According to this treatment failure this represents drug-resistant epileptic disorders. The treatment of these cats with drug resistant epilepsy is now changed to imepitoin, provided at high doses as for example 30 mg/kg bodyweight twice daily.

[10] = system: healthy cats; settings: 20 mg/kg dose; cited from earlier work
[11] = 40 and 80 mg/kg body weight twice daily for 30 days
[12] = 40 and 80 mg/kg body weight twice daily, after 30 days
[13] = 30 mg/kg bodyweight twice daily, days 0-29
[14] = imepitoin 30 mg/kg twice daily, phenobarbital 3.5 mg/kg twice daily
[15] = female, domestic short hair, plasma, females (n=3)
[16] = male, domestic short hair, plasma, males (n=3)
[17] = second cat, 10 mg/kg bodyweight twice daily
[18] = second cat, 20 mg/kg bodyweight twice daily

## NC(=O)CCC/N=C(\c1ccc(Cl)cc1)c1cc(F)ccc1O [progabide]
[1]
  anticonvulsant effect on kindled seizures: potent anticonvulsant effects

## CC[C@@H](C(N)=O)N1CCCC1=O [Levetiracetam]
[2]; cats with refractory epilepsy under phenobarbital treatment, 10 cats
  efficacy as add-on therapy: somewhat effective

## C=CC(N)CCC(=O)O (stereo not shown) [gamma-vinyl GABA]
[1]
  anticonvulsant effect on kindled seizures: potent anticonvulsant effects

## O=C1N=C(N2CCOCC2)CN1c1ccc(Cl)cc1 [imepitoin, 1-(4-chlorophenyl)-4-(4-morpholinyl)-2,5-dihydro-1H-imidazol-2-one]
[3]; [11]
  behavioral changes or sedation: not noted
  considerable adverse events: no considerable adverse events are observed
  emesis: intermittently observed in the second and third week of treatment
  tolerability: well tolerated by all cats
[3]; [12]
  hematological or biochemical abnormalities in blood examination: No hematological or biochemical abnormalities are noted
  urine analysis: physiological results
[3]; 40 or 80 mg/kg bodyweight twice daily, FIG. 3
  Alkaline Phosphatase (AP) in serum: in the physiological range with normal variance
[4]; 30 mg/kg bodyweight twice daily, FIGS. 2A+2B
  liver enzyme measurements versus untreated control: no difference between imepitoin-treated and untreated (control) animals
[4]; [13]
  Mortality: not observed
  effect on body weight development, food and water consumption, heart rate, respiratory rate and laboratory parameters (hematology, clinical chemistry, urinalysis): No evidence of a clear effect
  sedation: No sedation is observed in any animal
[4]; 30 mg/kg twice daily, from the second week of treatment onwards
  animals with temporary vomitus or choking: 3 of 6
[5]; 30 mg/kg bodyweight twice daily
  seizure frequency and severity compared to untreated status at diagnosis: significantly reduced
[5]; 30 mg/kg bodyweight twice daily at an interval of 8-14 hours
  cats achieving seizure freedom: at least 40%
[5]; 30 mg/kg bodyweight twice daily, seizure-free cats
  considerable adverse events: do also not experience considerable adverse events
[5]; 20 to 60 mg/kg bodyweight two- or three-times daily
  seizure frequency and/or severity in animals in which phenobarbital is not effective: reduces seizure frequency and/or severity significantly
[6]; imepitoin 30 mg/kg bodyweight twice daily
  seizure freedom among well controlled cats: the majority of them reach seizure freedom
[6]; [14]
  cats poorly controlled / disease not adequately controlled: about 15%
  cats with well controlled epilepsy/seizures: 85%
[7]; 30 mg/kg twice daily, Days 0-29
  accumulation upon long-term BID dosing: no accumulation occurs
[7]; after 14 and 29 days of twice daily dosing
  exposure compared to the first dosing day: slightly lower exposure
[7]; both sexes, domestic short hair, plasma, oral, 30 mg/kg bodyweight twice daily, read-out: tMax, median
  Tmax: 1 h
[7]; both sexes, domestic short hair, plasma, oral, 30 mg/kg bodyweight twice daily, read-out: tMax, range
  Tmax: 0.5 to 3 h
[7]; both sexes, domestic short hair, plasma, oral, 30 mg/kg bodyweight twice daily, read-out: half-life time t1/2 (converted)
  half-life: 1.5 h
[7]; [15]
  Cmax: 6640 ng/mL
  AUC(0-t): 24500 ng·h/mL
[7]; [16]
  Cmax: 7050 ng/mL
  AUC(0-t): 28000 ng·h/mL
[7]; oral 30 mg/kg
  time of last measurable concentration: more than 18 hours
[8]; first cat, 25 mg/kg bodyweight twice a day
  considerable adverse events: No considerable adverse events were observed
[8]; first cat, 25 mg/kg bodyweight twice a day, initially
  tiredness: tiredness 1-1.5 hours after application of the drug, which lasted for about two hours
[8]; first cat, 25 mg/kg then 20 mg/kg bodyweight twice a day
  duration of complete seizure freedom (observation period): 6 months
[8]; first cat, 14 years, 100 mg (25 mg/kg bodyweight) twice a day
  seizures under treatment: no further seizures
[8]; first cat, dose reduced to 20 mg/kg bodyweight after three months
  tiredness after dose reduction: the tiredness disappeared
[8]; [17]
  seizures under treatment: experienced again a seizure
  tiredness: resolved the tiredness
[8]; [18]
  duration of complete seizure freedom (observation period): 2.5 months
  tiredness or other adverse events: No tiredness or other adverse events were observed
[8]; second cat, 30 mg/kg bodyweight twice a day
  tiredness: showed the tiredness observed in the first cat already after treatment start
[8]; second cat, 7 years, 30 mg/kg bodyweight twice a day
  response to treatment: responded immediately to treatment
[9]; after change to imepitoin 30 mg/kg bodyweight twice daily, in most cases
  reduction of seizure frequency: at least 50%
[9]; cats with uncontrolled or continuing seizures under phenobarbital
  seizure status after transition from phenobarbital to imepitoin monotherapy: became seizure free

## Cl.O=C(O)C1CCCN(CCC=C(c2ccccc2)c2ccccc2)C1 (stereo not shown) [SKF89976A]
[1]
  anticonvulsant effect on kindled seizures: potent anticonvulsant effects

## NCC(CC(=O)O)c1ccc(Cl)cc1 (stereo not shown) [baclofen]
[1]
  anticonvulsant effect on kindled seizures: did not show anticonvulsant effects

## NS(=O)(=O)Cc1noc2ccccc12 [zonisamide]
[10]
  share of healthy cats with adverse reactions (anorexia, diarrhea, vomiting, somnolence, ataxia): Approximately half

## CCC1(c2ccccc2)C(=O)NC(=O)NC1=O [phenobarbital]
[2]; cats, recent study (Pakozdy et al. 2013)
  treated cases with sedation: over 40%
[6]; [14]
  cats poorly controlled / disease not adequately controlled: 30%
  cats with well controlled epilepsy/seizures: 70%
  treated cats experiencing at least one adverse event: 65%
[6]; phenobarbital 3.5 mg/kg bodyweight twice daily
  treated cats experiencing sedation as side effect: approximately 40%

## [Br-].[K+] [Bromide]
[2]; cats
  treated cats with idiosyncratic allergic pneumonitis: 35-42%
  treated cats with seizures controlled: about 35%
